The source of these data is patent EP0364584A1, “ANTIDOTE FOR ORGANIC PHOSPHORUS COMPOUND POISONING” (priority 1988, dated 1989).

In data set [1] the test system is Kranken mit akuten peroralen Vergiftungen mit verschiedenen phosphororganischen Insektiziden. In words: Clinical study in patients with acute oral poisoning by organophosphorus insecticides. It is filed as in vivo, Menschen. From the text: Das erfindungsgemässe Arzneimittel wurde in der Klinik an Kranken mit akuten peroralen Vergiftungen mit verschiedenen phosphororganischen Insektiziden untersucht. Insgesamt wurden 183 Menschen behandelt, die in die Klinik gelangten. Daraus befanden sich 26 Menschen in einer leichten, 48 Kranke - in einer mässigen und 75 Kranke in einer schweren Vergiftungsstufe. Das Alter der Geschädigten schwankte von 15 bis 76 Jahren. Die Zeit des Behandlungsbeginns betrug I bis 12 stunden nach der Einnahme des Insektizids und in 28 Fällen wurde die Behandlung vor der Hospitalisierung begonnen.
Die therapeutische Effektivität des erfindungsgemässen Arzneimittels wurde mit der ähnlichen Wirkung des wirksamsten bekannten Präparats TMB-4 verglichen (insgesamt 50 Menschen) .
Das erfindungsgemässe Arzneimittel wurde in Kombination mit Atropin neben aktiven Methoden der Detoxikation ausgenutzt, die die Giftentfernung aus dem Organismus bezweckten und das Durchwaschen des Magens, die Verordnung von Abführungsmitteln, Siphon- und Abführungsklystieren, die Beschleunigung der Diurese, aktive symptomatische und Erhaltungstherapie, allgemein stärkenden Behandlung, Massnahmen zur Korrektion der Störungen des säurig-alkalischen und wässrigen und Elektrolytzustands einschliessen. […]

Data set [2] is described as follows: Acute toxicity, single administration, cats. The following applies: cat, in vivo, im; Katzen, intramuskulär; read-out: LD50 (mg/kg) und deren zuverlässige Grenzen P = 0,05. The text has this:
Die Toxizität des erfindungsgemässen Arzneimittels bei der einmaligen Einführung (die akute Toxizität) wurde an geschlechtsreifen Tieren (an Mäusen, Ratten, Katzen, Hunden) bestimmt. Die Analyse der experimentellen Angaben für Mäuse und Ratten wurde nach der Methode der Probit-Analyse nach Litchfield und Wilcoxon, und für Hunde und Katzen nach der Methode der Anreicherung der Frequenz nach Behrens durchgeführt.
Die Toxizitätsparameter LD50 wurden für Mause bei der intraperitonealen und subkutanen Einführung, für Ratten bei der subkutanen, intramuskulären und enteralen Einführung, für Katzen bei der intramuskulären Einführung und für Hunde bei der subkutanen Einführung bestimmt.

Take `C=CC[n+]1ccccc1C=NO` [das erfindungsgemässe Arzneimittel, N-Allyl-2-pyridinaldoxiinbromid]: in data set [1] (Einzeldosis 0,075 g, Kurdosis 0,4 bis 1,6 g), the “Nebenerscheinungen und Kontraindikationen” value is “keine Nebenerscheinungen und Kontraindikationen”. For the same molecule, the “Kennziffer der Funktion der Leber und der Stoffwechselprozesse” value in data set [1] (Eiweissfraktion, Bilirubin, Transaminasenaktivität, Blutzucker, Elektrolyt- und Gaswechsel) is “zu deren Normalisierung beiträgt”. In addition, the LD50 in data set [2] stood at 126 mg/kg.
